# Measurements taken from the supplement of paper PMC10307832.
# Experiments:
# Experiment in all cases: relative viability (nuclei count vs DMSO), 5 days (fraction); higher = more cells survive
# IU1-47 + Pemetrexed = compound: CC1=CC(=C(N1C2=CC=C(C=C2)Cl)C)C(=O)CN3CCCCC3 [IU1-47] + Nc1nc2[nH]cc(CCc3ccc(C(=O)N[C@@H](CCC(=O)O)C(=O)O)cc3)c2c(=O)[nH]1 [Pemetrexed] (partner 0.2 µM)
# Method in brief: (§1)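 Lung cancer cell lines, seeded in 1536-well plates, were treated the following day by pin tool with a single drug or with five library-drug doses (not always all listed) in √10 steps on top of a fixed anchor-drug dose. Cells were fixed and nuclei stained in one step after 5 days, and nuclei were counted. Relative viability is the nuclei count for treated wells divided by that for vehicle wells, reported as medians of duplicate plates.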
# IU1-47 + Dasatinib = compound: CC1=CC(=C(N1C2=CC=C(C=C2)Cl)C)C(=O)CN3CCCCC3 [IU1-47] + Cc1nc(Nc2ncc(C(=O)Nc3c(C)cccc3Cl)s2)cc(N2CCN(CCO)CC2)n1 [Dasatinib] (partner 0.075 µM)
# Method in brief: as §1
# FG-4592 + Lapatinib = compound: Cc1nc(C(=O)NCC(=O)O)c(O)c2ccc(Oc3ccccc3)cc12 [FG-4592] + CS(=O)(=O)CCNCc1ccc(-c2ccc3ncnc(Nc4ccc(OCc5cccc(F)c5)c(Cl)c4)c3c2)o1 [Lapatinib] (partner 2 µM)
# Method in brief: as §1
# IU1-47 + Linsitinib = compound: CC1=CC(=C(N1C2=CC=C(C=C2)Cl)C)C(=O)CN3CCCCC3 [IU1-47] + C[C@]1(O)C[C@@H](c2nc(-c3ccc4ccc(-c5ccccc5)nc4c3)c3c(N)nccn32)C1 [Linsitinib] (partner 1 µM)
# Method in brief: as §1
Cell Line,relative viability (IU1-47 + Pemetrexed; first compound 0.08 µM),relative viability (IU1-47 + Pemetrexed; first compound 0.253 µM),relative viability (IU1-47 + Pemetrexed; first compound 0.8 µM),relative viability (IU1-47 + Pemetrexed; first compound 2.53 µM),relative viability (IU1-47 + Pemetrexed; first compound 8 µM),relative viability (IU1-47 + Dasatinib; first compound 0.08 µM),relative viability (IU1-47 + Dasatinib; first compound 0.253 µM),relative viability (IU1-47 + Dasatinib; first compound 0.8 µM),relative viability (IU1-47 + Dasatinib; first compound 2.53 µM),relative viability (IU1-47 + Dasatinib; first compound 8 µM),relative viability (FG-4592 + Lapatinib; first compound 0.08 µM),relative viability (FG-4592 + Lapatinib; first compound 0.253 µM),relative viability (FG-4592 + Lapatinib; first compound 0.8 µM),relative viability (FG-4592 + Lapatinib; first compound 2.53 µM),relative viability (FG-4592 + Lapatinib; first compound 8 µM),relative viability (IU1-47 + Linsitinib; first compound 0.08 µM),relative viability (IU1-47 + Linsitinib; first compound 0.253 µM),relative viability (IU1-47 + Linsitinib; first compound 0.8 µM),relative viability (IU1-47 + Linsitinib; first compound 2.53 µM),relative viability (IU1-47 + Linsitinib; first compound 8 µM)
NCI-H2342,0.794,0.782,0.942,0.825,0.693,0.328,0.344,0.32,0.301,0.307,–,–,–,–,–,–,–,–,–,–
SK-MES-1,0.95,1.05,0.97,0.993,0.854,0.376,0.467,0.335,0.405,0.315,0.513,0.489,0.42,0.489,0.397,1.13,1.31,1.12,1.01,1.11
HCC-366,0.176,0.157,0.192,0.211,0.19,0.679,0.694,0.621,0.689,0.584,0.89,0.998,1.1,1.1,1.13,0.698,0.643,0.951,–,0.567
201T,0.458,0.386,0.317,0.261,0.389,0.542,0.604,0.622,–,0.587,0.976,1.03,0.931,1.04,1.01,1.05,1.02,1.06,–,1.11
HCC-827,0.26,0.282,0.275,0.291,0.26,0.345,0.366,0.301,0.288,0.387,0.192,0.192,0.193,0.18,0.22,0.99,0.92,0.941,1.01,0.963
NCI-H647,0.155,0.189,0.182,0.166,0.159,0.171,0.179,–,0.155,0.177,1.13,1.01,1.23,1.08,1.04,1.22,1.2,1.12,1.19,1.01
NCI-H2023,0.22,0.232,0.246,0.208,0.204,0.564,0.521,0.657,0.347,0.55,1.03,0.735,0.407,0.468,0.598,0.701,0.686,0.665,0.617,0.611
NCI-H520,0.548,0.711,0.831,0.847,0.577,0.197,0.172,0.203,0.217,0.166,0.754,0.758,0.828,0.793,0.721,0.849,1.13,0.934,0.974,0.666
RERF-LC-KJ,0.503,0.454,0.523,0.389,0.479,0.926,0.947,0.817,0.877,0.781,0.793,0.816,0.86,0.899,0.725,0.889,0.865,0.872,0.957,0.893
A-427,1.06,1,0.993,1,0.937,0.851,0.656,0.728,–,0.642,0.975,1.05,0.943,0.953,1.03,1.13,1.11,1.19,–,1.21
NCI-H441,0.255,0.273,0.278,0.306,0.265,0.717,0.655,0.679,0.471,0.576,–,–,–,–,–,0.703,0.49,0.594,0.438,0.44
NCI-H1703,–,–,–,–,–,–,–,–,–,–,1.11,0.881,1.11,0.966,0.936,0.516,0.707,0.416,0.671,0.886
NCI-H1792,0.529,0.817,0.789,0.877,0.35,0.937,0.876,1.03,0.556,0.803,0.859,0.785,0.908,0.86,0.849,0.615,0.581,0.449,0.299,0.336
Calu-6,–,–,–,–,–,–,–,–,–,–,1.01,1,1.12,1.08,1.07,1.09,0.918,1.02,0.986,0.918
SK-LU-1,0.981,1.05,1.03,1.02,0.887,0.208,0.187,0.182,0.18,0.159,0.774,0.717,0.776,0.988,0.88,1.16,1.08,1.32,1.16,1.17
PC-3 [JPC-3],1.13,1.12,1.04,0.774,1.07,1.01,1.02,0.982,0.956,0.788,0.446,0.419,0.362,0.402,0.439,0.99,0.927,0.978,–,1.04
EMC-BAC-2,0.458,0.436,0.556,0.459,0.468,0.373,0.336,0.356,0.324,0.326,0.853,0.866,0.808,0.731,0.842,0.857,0.829,0.841,0.864,0.774
LK-2,0.327,0.308,0.3,0.306,0.156,0.221,0.185,0.264,0.24,0.28,0.695,0.912,0.68,0.886,0.767,0.742,0.697,0.592,0.335,0.416
